Test results reported in US7947688B2, “N-[3-(3-substituted-pyrazolo[1,5-a]pyrimidin-7-yl)phenyl]-sulfonamides, and compositions, and methods related thereto” (Ferrer Internacional, S.A., priority 2003, dated 2011).

Experiments:
male CD1 mice = test: Predictive sedation-hypnosis test in mice (motor activity, crossings); format: in vivo; conditions: single equimolecular intraperitoneal dose, crossings over 30 min after dosing (first 5 min discarded) versus control
Method: • In vivo determination of predictive sedative-hypnotic action.
The in vivo effects of these compounds were assessed by a predictive sedation-hypnosis test in mice (D. J. Sanger et al., Eur. J. Pharmacol., 313, 35-42, 1996; and G. Griebel et al., Psychopharmacology, 146, 205-213, 1999). Groups of 5-8 male CD1 mice, weighing 22-26 g at the time of test, were used. The test compounds were administered in single equimolecular intraperitoneal doses, suspended in 0.25% agar with one drop of Tween in a volume of 10 ml/kg. Control animals received the vehicle alone. Using an Actisystem DAS16 (Panlab, S. L., Spain) the crossings (number of counts) were recorded for each mouse at 5-min intervals during a period of 30 minutes after dosing. The inhibition percentage of crossings of treated animals versus control animals (the first 5 min were discarded) was calculated.

Compound	melting point [°C]	% Motor Activity Inhibition (male CD1 mice) [%]
CN(c1cccc(-c2ccnc3c(C#N)cnn23)c1)S(C)(=O)=O [Example 2, N-[3-(3-cyano-pyrazolo[1,5-a]pyrimidin-7-yl)-phenyl]-N-methyl-methanesulfonamide]	193 to 195	71.39
CN(c1cccc(-c2ccnc3c(C(=O)c4cccs4)cnn23)c1)S(C)(=O)=O [Example 3, N-methyl-N-{3-[3-(thiophene-2-carbonyl)-pyrazolo[1,5-a]pyrimidin-7-yl]-phenyl}-methanesulfonamide]	169 to 170	93.58
